Paper PMC4326489, “Efficacy and pharmacokinetic evaluation of a novel anti-malarial compound (NP046) in a mouse model” (Malaria Journal, 2015)
Converted amounts (≈) assume the structure as drawn.

Tests used:
[1] = Kinetic solubility (HPLC-UV); format: physicochemical; conditions: aqueous buffer, kinetic from dmso stock, PBS pH 2.0
Procedure: The concentration of the test compound (x) in PBS samples was calculated from the peak area (y) in its UV chromatogram by extrapolation from the three-point calibration line, using the equation y = ax + b; where a = slope and b = intercept.
Summary of the assay method for the determination kinetic solubility:
PBS was prepared and its pH adjusted to 2.0 and 7.4
primary stock solutions of the test compounds and controls (reserpine and hydrocortisone) in DMSO at 10 mM were prepared
Samples were briefly vortex mixed
samples were incubated for 2 hours while mixing in an incubator with orbital shaker at 200 rpm
samples were centrifuged at 3500 rpm for 15 minutes at 22 °C
the supernatant of the standards were transferred from the clear 96-well plate into an opaque, round bottom 96-well analysis plate, while the aqueous samples were filtered using a vacuum manifold through a multi-screen filter plate (MSRLN 0450, 0.4 µM), into the same opaque, round bottom 96-well plate
samples were analysed using HPLC-UV method by injecting the STDs in duplicate, and the samples in singlet.

[2] = system: Plasmodium berghei transfected with green fluorescence protein (strain ANKA); experiment: In vivo efficacy (four-day dosing) in P. berghei-infected mice, % parasitaemia by flow cytometry; set-up: species or system Plasmodium berghei in male C57BL/6 mice; conditions: 10 mg/kg oral, day five post-infection
Procedure: Plasmodium berghei transfected with green fluorescence protein (strain ANKA), a chloroquine-sensitive strain, was stored in liquid nitrogen. Parasites were thawed and administered intraperitoneally (IP) to infect two donor mice a week before the experiment commenced. […] Finally, each of the test animals received 200 μl of the P. berghei-infected RBCs (1×10^7 per 200 μl PBS) IP to infect them with the parasite. There were three animals per dose group, and each of them received 200 μl of NP046 in water orally and intravenously (volume adjusted relative to the weight of mouse) at their respective dose concentration as shown below:
The test compound was administered to the animals once a day for four days. […] Blood samples were collected via tail bleeding in tubes containing PBS on day 5, and % parasitaemia was determined with FACSCalibur™ using the software CellQuestPro [5].
Finally, the percentage parasite growth inhibition was calculated using the following equation [6]: [drawing 1]

SMILES | solubility at 2 h [1] [µM] | % growth inhibition ([2]; relative to negative control (placebo)) [%] | % parasitaemia ([2]; once a day for four days, mean ± S.E.M) [%]
COC(=O)[C@H]1[C@H]2C[C@@H]3c4[nH]c5cc(OC)ccc5c4CCN3C[C@H]2C[C@@H](OC(=O)c2cc(OC)c(OC)c(OC)c2)[C@@H]1OC [Reserpine, reference compound] | 193 (≈ 117 µg/mL) | – | –
CCN(CC)CCCC(C)Nc1ccnc2cc(Cl)ccc12 (stereo not drawn) [Positive control, chloroquine phosphate, reference compound] | – | 100 | 0.01 ± 0.0
